From patent publication US11135224B2, “Methods of sensitizing estrogen receptor positive (ER+) breast cancer cells to endocrine therapy” (New York University, priority 2018, dated 2021)

Legend:
[1] = system: p38, JNK1, and RSKs; conditions: at 10 μM; cited from earlier work
[2] = system: Runx2 mRNA; assay: Runx2 mRNA levels (RT-qPCR) after CGP57380; format: cell-based, human; conditions: treated vs untreated cells
Method: Quantitative Real-Time PCR (RT-qPCR) and Analysis: RNA was extracted using Trizol as per the manufacturer's instructions. One microgram of RNA was used for reverse transcription reaction using Promega GoScript, as per the manufacturer's instructions. qRT-PCR was completed using iTaq Universal 2× SYBR Green qPCR master mix (Bio-Rad) and an Applied Biosystems 7500 Fast RT-PCR machine as per the manufacturers' instructions. Fold change was calculated using the 2^−ΔΔCt method.
The biological functions of mRNAs identified as highly eIF4E-dependent in tamoxifen-resistant cells were next assessed. Of these, Runx2 was particularly notable because it encodes a protein with a number of activities that could play a role in tamoxifen resistance, as it is an important inhibitor of estrogen signaling and stimulates oncogenic pathways. […] It was also determined whether Runx2 mRNA requires eIF4E S209 phosphorylation by Mnk1. Cells were untreated or treated with CGP57380, and Runx2 mRNA and protein levels were determined.

[3] = system: RUNX2 protein; assay: RUNX2 protein immunoblot after CGP57380; format: cell-based, human; conditions: TamS and TamR cells, treated for 6 hours vs untreated
Method: The average of three studies is shown. The immunoblot is representative of three independent studies. […] Equal amounts of RNA were quantified by RT-qPCR and normalized to GAPDH using the −ΔΔCt method. An average of three studies is shown. […] Equal protein amounts were immunoblotted as shown. eEF2 was used as a loading control. […] Cells were treated with DMSO and 1 μM4-OHT and silenced for Runx2 or nonsilencing (NS). The results of three independent experiments are shown. […] Lines represent validated and predicted interactions. […] (**)P<0.01; (***)P<0.001 by t-test.
Immunoblot Studies: In brief, cells were lysed in NP-40 buffer (50 mM HEPES, pH 7.0, 150 mM NaCl, 2 mM EDTA, 25 mM NaF, 25 mM β-glycerophosphate, 2 mM Na3VO4, 1% IGEPAL, and Complete Mini protease inhibitor cocktail tablet+/−EDTA; Roche) or RIPA lysis buffer (1% Triton X-100, 1% sodium deoxycholate, 0.1% SDS, 150 mM NaCl, 50 mM Tris, pH 7.4, 2 mM Na3VO4, 25 mM β-glycerophosphate, 15 mM NaF, and complete protease inhibitor mix; Roche) and lysate cleared by centrifugation at 13,000 rpm for 10 minutes at 4° C. Lysate protein concentration was determined for each sample using BCA assay. […] Quantitation was performed by determination of the integrated density of the bands using ImageJ software.
The biological functions of mRNAs identified as highly eIF4E-dependent in tamoxifen-resistant cells were next assessed. […]

Nc1ncnc2n[nH]c(Nc3ccc(F)cc3)c12 [CGP57380]
inhibitory activity on other families of related kinases (p38, JNK1, and RSKs) [1]: no inhibitory activity | Runx2 mRNA levels [2]: no statistically significant difference | RUNX2 protein levels [3]: reduced more than threefold
